Target: histone deacetylase (HDAC)
Experiment: Inhibition of Histone Deacetylase Enzymatic Activity
Format: biochemical
Settings: substrate Boc-Lys(Ac)-AMC, Fluor-de-Lys developer, 37° C., 20 min; against one or more of HDAC-1 to HDAC-11, SirT1 to SirT7 (isoform not given); read-out: HDAC Inhibitory Activity (IC50)
Outline: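 Enzyme preincubated with compound at room temperature in 25 mM HEPES pH 8.0, 137 mM NaCl, 2.7 mM KCl, 1 mM MgCl2; reaction started at 37 °C with Boc-Lys(Ac)-AMC substrate. Fluorescence read ex 360/em 470 nm after 10 min dark incubation; activity binned into ranges A–D (<0.05 to <10 μM).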

| SMILES | IC50 |
| --- | --- |
| O=C(NO)c1ccc2c(c1)NC(=O)[C@@H](CC1CCCCC1)NC2=O [Compound 97g, (R)-3-(Cyclohexylmethyl)-N-hydroxy-2,5-dioxo-2,3,4,5-tetrahydro-1H-benzo[e][1,4]diazepine-8-carboxamide] | 2000 to 10000 nM |
| O=C(NO)c1ccc2c(c1)NC(=O)[C@H](CC1CCCCC1)NC2=O [Compound 97h, (S)-3-(Cycbohexylmethyl)-N-hydroxy-2,5-dioxo-2,3,4,5-tetrahydro-1H-benzo[e][1,4]diazepine-8-carboxamide] | 500 to 2000 nM |
| O=C(NO)c1ccc2c(c1)NC(=O)[C@H](c1ccccc1)NC2=O [Compound 97i, (S)-N-Hydroxy-2,5-dioxo-3-phenyl-2,3,4,5-tetrahydro-1H-benzo[e][1,4]diazepine-8-carboxamide] | 2000 to 10000 nM |
| O=C(NO)c1ccc2c(c1)NC(=O)[C@@H](c1ccccc1)NC2=O [Compound 97j, (R)-N-Hydroxy-2,5-dioxo-3-phenyl-2,3,4,5-tetrahydro-1H-benzo[e][1,4]diazepine-8-carboxamide] | 2000 to 10000 nM |
| O=C1CNC(=O)c2ccc(C(=O)NO)cc2N1 [Compound 97k, N-Hydroxy-2,5-dioxo-2,3,4,5-tetrahydro-1H-benzo[e][1,4]diazepine-8-carboxamide] | 2000 to 10000 nM |
| O=C(NO)c1ccc(O[C@H]2C[C@@H](C(=O)Nc3cccc4cccnc34)N(C(=O)OCc3ccccc3)C2)cc1 [Compound 109a, (2S,4S)-Benzyl 4-(4-(hydroxycarbamoyl)phenoxy)-2-(quinolin-8-ylcarbamoyl)pyrrolidine-1-carboxylate] | 50 to 500 nM |
| O=C(NO)c1ccc(O[C@@H]2C[C@@H](C(=O)Nc3cccc4cccnc34)N(C(=O)OCc3ccccc3)C2)cc1 [Compound 109b, (2S,4R)- Benzyl 4-(4-(hydroxycarbamoyl)phenoxy)-2-(quinolin-8-ylcarbamoyl) pyrrolidine-1-carboxylate] | 50 to 500 nM |
| O=C(NO)c1ccc(O[C@H]2C[C@H](C(=O)Nc3cccc4cccnc34)N(C(=O)OCc3ccccc3)C2)cc1 [Compound 109c, (2R,4S)- Benzyl 4-(4-(hydroxycarbamoyl)phenoxy)-2-(quinolin-8-ylcarbainoyl) pyrrolidine-1-carboxylate] | 50 to 500 nM |
| O=C(CCO[C@@H]1C[C@@H](C(=O)Nc2cccc3cccnc23)N(C(=O)OCc2ccccc2)C1)NO [Compound 112a, (2S,4R)-benzyl 4-(3-(hydroxyamino)-3-oxopropoxy)-2-(quinolin-8-ylcarbamoyl)pyrrolidine-1-carboxylate] | 500 to 2000 nM |
| O=C(CO[C@@H]1CC(C(=O)Nc2cccc3cccnc23)N(C(=O)OCc2ccccc2)C1)NO (stereo partly drawn) [Compound 112b, (2S,4R)-benzyl 4-(2-(hydroxyamino)-2-oxoethoxy)-2-(quinolin-8-ylcarbainoyl) pyrrolidine-1-carboxylate] | 500 to 2000 nM |
| O=C(CCO[C@@H]1C[C@H](C(=O)Nc2cccc3cccnc23)N(C(=O)OCc2ccccc2)C1)NO [Compound 112c, (2R,4R)-benzyl 4-(3-(hydroxyamino)-3-oxopropoxy)-2-(quinolin-8-ylcarbamoyl) pyrrolidine-1-carboxylate] | 500 to 2000 nM |
| O=C(NO)c1ccc(NC(=O)N2c3ccccc3NC(=O)[C@H]2Cc2ccc(F)c(F)c2)cc1 [Compound 116, (R)-2-(3,4-Difluorobenzyl)-N-(4-(hydroxycarbamoyl)phenyl)-3-oxo-3,4-dihydroquinoxaline-1(2H)-carboxamide] | < 50 nM |
| O=C(NO)c1cccc(NC(=O)N2c3ccccc3NC(=O)[C@H]2Cc2ccc(F)c(F)c2)c1 [Compound 118, (R)-2-(3,4-difluorobenzyl)-N-(3-(hydroxycarbamoyl)phenyl)-3-oxo-3,4-dihydroquinoxaline-1(2H)-carboxamide] | 50 to 500 nM |
| O=C(NO)c1cnc(N[C@H]2C[C@@H](C(=O)Nc3cccc4cccnc34)N(C(=O)OCc3ccccc3)C2)nc1 [Compound 122, (2S,4S)-Benzyl 4-(5-(hydroxycarbamoyl)pyrimidin-2-ylamino)-2-(quinolin-8-ylcarbamoyl)pyrrolidine-1-carboxylate] | < 50 nM |
| O=C(NO)c1ccc(CN2C(=O)CNC(=O)[C@H]2Cc2c[nH]c3ccccc23)cc1 [Compound 136a, (R)-4-((2-((1H-Indol-3-yl)methyl)-3,6-dioxopiperazin-1-yl)methyl)-N-hydroxybenzamide] | < 50 nM |
| O=C(NO)c1ccc(CN2C(=O)CNC(=O)[C@H]2Cc2ccccc2)cc1 [Compound 136b, (R)-4-((2-Benzyl-3,6-dioxopiperazin-1-yl)methyl)-N-hydroxybenzamide] | < 50 nM |
| O=C(NO)c1ccc(CN2C(=O)CNC(=O)[C@H]2Cc2cccs2)cc1 [Compound 136c, (R)-4-((3,6-Dioxo-2-(thien-2-ylmethyl)piperazin-1-yl)methyl)-N-hydroxybenzamide] | 50 to 500 nM |
